The results in this text go back to US12194082B2, “Compositions and methods for treatment of homocystinuria” (THE REGENTS OF THE UNIVERSITY OF COLORADO, priority 2016, dated 2025).

One assay relates to Hcy, Cys. Put plainly: Continuous administration by ALZET osmotic pump in HO mice. The format is in vivo. Conditions: ALZET Model 2004 or 2006 pumps. As for the experimental part: ALZET® osmotic pumps provide steady, controlled delivery of the 20NHS PEG-htCBS C15S for a prolonged period of time in fresh and naïve HO mice. The htCBS C15S PEGylated with ME-200GS was administrated using four different models of micro-osmotic ALZET® pumps, which continuously dispensed a volume of enzyme per hour instead of repeated subcutaneous injections: Model 1002 (0.25 μl/h), Model 2002 (0.5 μl/h), Model 2004 (0.25 μl/h), and Model 2006 (0.15 μl/h).
For pain relief, pre- and post-operatively, animals were also administered TYLENOL® (2 mg/ml) in water bottles ad libitum for 48 hours before and after surgery for implantation of the ALZET® pump. In addition, the animals received 5 mg/kg of carprofen subcutaneously every 24 hours, and for 48 hours postoperatively. For anesthesia during surgery, 5% isoflurane was administered by inhalation and maintained at 2-3% during surgery. While mice were anesthetized, they each received a medical grade ALZET® osmotic pump implanted under sterile conditions in a biological safety cabinet. Pumps were implanted subcutaneously in the loose skin area on the ventral side of the neck. Prior to implanting the pump, the mice were shaved and the skin area was prepped with BETADINE®. Pump implantation required a small surgical incision (5 mm) made with sterile scissors. […]

For assay [1], the system named is I278T −/− homozygous mice. In words: Facial alopecia in I278T mice. The format is in vivo, mouse. The conditions noted are these: 3 times per week, start W24-W28, up to about 1 year. Here is the method:
3 W old mice not showing any signs of facial alopecia were split into 2 groups. The first group (n=3 males) was injected with 7.5 mg/kg three times per week with 200MA0B PEG-htCBS C15S for a period of 6 weeks. Physical look was recorded before the experiment and monitored weekly, then bi-weekly after the 6 W injection regimen. Metabolite levels were checked before the experiment and 24 hours after the last injection, i.e. after the 6 W injection regimen.
The second group (n=3; 2 males, 1 female) was continuously injected with 7.5 mg/kg of 200MA0B PEG-htCBS C15S administered subcutaneously from 3 W of age until 41 weeks of age. Weight was initially monitored weekly. Physical look was recorded before the experiment and was monitored weekly or bi-weekly after the initial 6 W injection regimen. Metabolite levels were checked before the experiment and 24 hours after the last injection of initial 6 W injection regiment and then followed weekly or bi-weekly.
The I278T mice, which were at least 120D (W17) old and had visible, fully developed facial alopecia, were split into 2 groups. […] Metabolite levels were determined prior to the treatment initiation and measured during the study 24 hours after the injection, and weight and physical look were initially monitored weekly, and later bi-weekly.

For assay [2], the system named is homocysteine, cystathionine, cysteine, lanthionine, and homolanthionine. In words: Pharmacodynamics (plasma sulfur amino acid metabolites) in monkeys. Conditions: for Homolanthionine plasma level / Lanthionine plasma level / Cystathionine plasma level: mean ± SEM. The format is in vivo, cynomolgus monkeys (Macaca fascicularis). Also on record: Cystathionine plasma level / Lanthionine plasma level / Homolanthionine plasma level: unit not given here. As for the experimental part: Plasma metabolites homocysteine, cystathionine and cysteine were determined by stable-isotope-dilution liquid chromatography mass spectrometry as previously described in (Allen et al., 1993, Metabolism, 42: 1448-1460). Measurements of total non-protein bound homocysteine and other aminothiols as well as of amino acids in tissue were performed as described in (Maclean et al., 2010b. Mol. Genet. Metab. 101, 153-162). Metabolites were determined by stable-isotope-dilution liquid chromatography mass spectrometry.

For “20NHS PEG-htCBS C15S: htCBS C15S PEGylated with ME-200GS PEG (20 kDa linear NHS ester-activated PEG)”, the Cys plasma levels result in the assay on Hcy, Cys was “only a modest increase”. The “plasma levels of Hcy” value with Hcy, Cys is given as “substantially reduced”. Also, the “animals responding (reversal of fully developed facial alopecia)” value in assay [1] was 4 out of 4. In addition, the Homolanthionine plasma level was determined as 64 ± 7 in assay [2] (1 mg/kg SC every 72 h, 176 h); 72 ± 5 in assay [2] (1 mg/kg SC every 72 h, 392 h); 64 ± 4 in assay [2] (3 mg/kg SC every 72 h, 176 h); 60 ± 10 in assay [2] (3 mg/kg SC every 72 h, 392 h); 50 ± 3 in assay [2] (10 mg/kg SC every 72 h, 176 h); 53 ± 4 in assay [2] (10 mg/kg SC every 72 h, 392 h). Also, the Lanthionine plasma level was found to be 46 ± 9 in assay [2] (1 mg/kg SC every 72 h, 176 h); 69 ± 7 in assay [2] (1 mg/kg SC every 72 h, 392 h); 103 ± 7 in assay [2] (3 mg/kg SC every 72 h, 176 h); 109 ± 9 in assay [2] (3 mg/kg SC every 72 h, 392 h); 281 ± 43 in assay [2] (10 mg/kg SC every 72 h, 176 h); 353 ± 38 in assay [2] (10 mg/kg SC every 72 h, 392 h). Further, the Cystathionine plasma level is recorded as 4010 ± 236 in assay [2] (1 mg/kg SC every 72 h, 176 h after first injection); 4272 ± 333 in assay [2] (1 mg/kg SC every 72 h, 392 h); 5629 ± 284 in assay [2] (3 mg/kg SC every 72 h, 176 h); 5893 ± 390 in assay [2] (3 mg/kg SC every 72 h, 392 h); 7098 ± 12 in assay [2] (10 mg/kg SC every 72 h, 176 h); 9318 ± 288 in assay [2] (10 mg/kg SC every 72 h, 392 h). Moreover, the “plasma Cth” value in assay [2] (8 hours after IV, 8 and 48 hours after SC administration) was “significant spikes”. In addition, in assay [2] (single IV or SC dose, healthy wild-type monkeys), the “plasma levels of Hcy and Cys” value is “No significant changes”.
